In patent US20060148908A1, “Supressant of toxicity induced by cancer chemotherapeutic agent and composition of cancer chemotherapeutic agent containing the same” (priority 2003, published 2006):
Entries after “also recorded” stand apart in the source; their conditions may differ.

Legend:
AP-1 = tested on: AP-1
Method: (§1) The density of band was measured by RFLPscan software.
(§2) The kidney and spleen were separated and weighed, respectively.
(§3) EMSA (electrophoretic mobility shift assay) was performed to evaluate the xanthorrhizol's effects on NF-κB and AP-1. […] After that, powdered liver tissues were homogenized in 500 μl of cool hypotonic buffer [10 mM HEPES (pH 7.8), 10 mM KCl, 1.5 mM MgCl2, 0.5 mM DIT, 0.2 mM PMSF]. To the homogenates was added 125 μl of 10% NP-40 solution, and the mixture was then centrifuged at 12,000×g for 1 min. Pellets were washed once with 100 μl of the above buffer and 12.5 μl of 10% NP-40, centrifuged, resuspended in 50 μl of 20 mM cool HEPES buffer (pH 7.8) containing 420 mM NaCl, 1.5 mM MgCl2, 0.2 mM EDTA, 0.5 mM DTT, 0.2 mM PMSF, and 20% glycerol, and centrifuged at 12000×g for 5 min at 4° C. The supernatant containing nuclear proteins was collected and assayed protein concentration and stored at −70° C. […] The binding reaction was carried out in 25 μl of the mixture containing 5 μl of incubation buffer [10 mM Tris-HCl (pH 7.5), 100 mM NaCl, 1 mM DTT, 1 mM EDTA, 4% (v/v) glycerol, and 0.1 mg/ml sonicated salmon sperm DNA], 10 μg of nuclear extracts, and 100,000 cpm of the labeled probe. After 50 min of incubation at room temperature, the samples and comparative samples mixed with 3 μl of loading buffer (250 mM Tris-HCl (pH7.5), 0.2% bromophenol blue, 40% glycerol) were electrophoresed through a 6% non-denaturing polyacrylamide gel at 150 V for 2 hrs. Finally, the gel was dried and exposed to X-ray film.

NF-κB = conditions: for binding activity of NF-κB induced by cisplatin: liver, oral pretreatment before cisplatin
Method: as §1, §2, §3

ICR mice [1] = assay: Serum biochemical parameters (GPT, GOT, BUN, creatinine) in cisplatin-treated mice; type: in vivo
Method: as §2
Blood samples obtained from heart were kept at room temperature for 2 h, centrifuged at 3000 rpm for 10 minutes to obtain sera, and stored at low temperature for analyzing proteins. GPT (Glutamate-Pyruvate Transaminase), GOT (Glutamate-Oxaloacetate Transaminase), blood urea nitrogen (BUN), and creatinine from the serum were measured.
The principle is following: α-ketoglutaric acid+alanine→glutamate+pyruvate. Pyruvate formed by GPT enzyme in said reaction is reacted with 2,4-dinitrophenylhydrazine and the intensity of color formed by the resulting reaction is related to enzymatic activity. The absorbance was determined at 505 nm. The reagents for determining GPT and GOT were purchased from Sigma chemical Co. (St. Louis, U.S.A.). Because hemolyzed serum contains a high level of GOT and GPT compared to normal serum, only unhemolyzed serum should be used as much as possible. The separated serum samples were stored at 4° C. and used within 5 days because the activity of GPT and GOT might decrease after 5 days at low temperature.
1 ml alanine-α-KG substrate was added to test tube and was pre-warmed at 37° C. for 2-3 minutes. 0.2 ml serum samples was added to each tube and incubated at 37° C. for 30 minutes in water bath. After that, 1 ml 2,4-dinitrophenylhydrazine was added and incubated at room temperature for 20 minutes. 10 ml 0.4N NaOH solution was added to each tube and was mixed well. After that, the GPT absorbance of each tube was read comparing with distilled water. In case of GOT determination, 1 ml aspartate-α-KG substrate was pre-warmed at 37° C. for 2-3 minutes, and 0.2 ml serum samples were added to each tube and incubated at 37° C. for 60 minutes, and the absorbance was read.
Through a kit for assaying blood urea nitrogen, Ammonia (NH3) formed by hydrolysis of urea was measured by the absorbance at 570 nm.
0.5 ml urease solution was added to test tube and mixed with 10 μl serum sample, and incubated in water bath at 37° C. for 5-10 minutes. 1 ml phenol nitroprusside solution and 1 ml alkaline hypochlorite solution were added to the tube and mixed gentlely, and 5 ml distilled water was added. After that, the absorbance of the reaction was measured comparing with distilled water as a control. The reagents for determining urea nitrogen were purchased from Sigma chemical Co. (St. Louis, U.S.A.) and standard calibration curve was used.
Standard calibration curve was used.
3 ml alkaline picrate solution and 0.3 ml serum sample were mixed well at 37° C. for 20 minutes and the absorbance (A1) was measured. Distilled water was used for a negative control. 0.1 ml acid solution (mixture of sulfuric acid and acetic acid) was added to each tube and incubated in water bath at 37° C. for 5 minutes. After that, the absorbance (A2) was read with distilled water as a negative control. Absorbance of the sample for determining the content of creatinine is absorbance (A1) minus absorbance (A2) according to standard calibration curve. The reagents for determining creatinine were purchased from Sigma chemical Co. (St. Louis, U.S.A.)

ICR mice [2] = assay: Kidney and spleen weight relative to body weight in cisplatin-treated mice; type: in vivo; conditions: for specific gravity of kidney: oral pretreatment for 4 days before cisplatin injection, versus cisplatin only
Method: Cisplatin was intraperitoneally injected in mice. After some time passed, body weights of the mice were checked and induction of toxicity was confirmed. Blood was gotten from the heart of etherized mouse, and biochemical markers related to the induction of hepatotoxicity and nephrotoxicity were evaluated, and the kidney and spleen were separated and weighed for comparison.
Changes of specific gravity of kidney were also measured to evaluate suppressing effects of xanthorrhizol on nephrotoxicity induced by cisplatin.
as §2

COX-2 = assay: Semiquantitative RT-PCR of liver, COX-2 mRNA expression; type: in vivo, mice; conditions: for cisplatin-induced COX-2 mRNA expression: pretreatment 200 mg/kg before cisplatin
Method: (§4) The mRNA expression levels of NF-κB-dependent genes, COX-2 and iNOS, were evaluated by semiquantitative RT-PCR using specific primer sets. β-actin and GAPDH were used as control.
as §2

iNOS = assay: Semiquantitative RT-PCR of liver, iNOS mRNA expression; type: in vivo, mice; conditions: for induction of iNOS mRNA expression by cisplatin: pretreatment before cisplatin
Method: as §4, §2

Kin = conditions: mouse, in vivo
Method: After that, powdered liver tissues were homogenized using TRIzol™ reagent (Life technologies, Austria). The homogenized samples were incubated for 5 min at room temperature to permit the complete dissociation of nucleoprotein complexes. After the addition of 0.2 volume of chloroform, samples were shaken vigorously for 15 seconds, incubated for 2-3 min, and centrifuged at 12000×g for 15 min at 4° C. Total RNA in the upper aqueous phase was precipitated by mixing with an equal volume of isopropanol. The mixtures were incubated for 10 min at 4° C. and centrifuged at 12000×g for 10 min at 4° C. Total RNA pellet was washed with 75% ethanol, dried, and dissolved in RNase free water. To prevent the contamination with chromosomal DNA, total RNA samples were incubated with 10 units of DNase I (GenHunter Corp., Nashville, USA) at 37° C. for 30 min, and then DNA-free RNA was isolated using TRIzol reagent. The concentration and purity of total RNA and DNase-I-treated total RNA were calculated with absorbance at 260 and 280 nm.
DDRT-PCR (differential display reverse transciption-polymerase chain reaction) was performed using the RNAimage kit (GenHunter Corp., Nashville, USA). […]

S100A9 = assay: DDRT-PCR and semiquantitative RT-PCR of liver, S100A9 mRNA expression; type: in vivo, mice
ClpX = assay: DDRT-PCR and semiquantitative RT-PCR of liver, ClpX mRNA expression; type: in vivo, mice
Streptococcus mutans = conditions: Hwang 2000; cited from earlier work
rat uterine = conditions: Ponce-Monter et al. 1999; cited from earlier work
[3] = liver, oral pretreatment before cisplatin
[4] = 200 mg/kg per day orally 4 days, then cisplatin 45 mg/kg i.p., 16 h
[5] = cisplatin 45 mg/kg i.p. alone, 16 h after injection
[6] = cisplatin 45 mg/kg i.p. alone (corn oil orally 4 days), 16 h after injection
[7] = administration of cisplatin alone
[8] = 100 mg/kg per day orally 4 days, then cisplatin 45 mg/kg i.p., 16 h
[9] = 200 mg/kg per day orally 4 days, then cisplatin 45 mg/kg i.p., 16 h, listed as xanthorrhizol

Method for CP: Each example group consisted of 10 ICR mice (5 weeks, male). […] Only the corn oil was dosed orally as a negative control. […] Mice were weighed 16 h after the injection, killed under ether anesthesia and blood and liver samples were collected. The kidney and spleen were separated and weighed, respectively.
After that, powdered liver tissues were homogenized using TRIzol™ reagent (Life technologies, Austria). The homogenized samples were incubated for 5 min at room temperature to permit the complete dissociation of nucleoprotein complexes. After the addition of 0.2 volume of chloroform, samples were shaken vigorously for 15 seconds, incubated for 2-3 min, and centrifuged at 12000×g for 15 min at 4° C. Total RNA in the upper aqueous phase was precipitated by mixing with an equal volume of isopropanol. The mixtures were incubated for 10 min at 4° C. and centrifuged at 12000×g for 10 min at 4° C. […] The concentration and purity of total RNA and DNase-I-treated total RNA were calculated with absorbance at 260 and 280 nm. […]
Semiquantitative RT-PCR was performed to confirm the results from DDRT-PCR. To set the most suitable PCR amplification conditions, primers for interesting gene were determined by an on-line primer design program (Rozen and Skaletsky, 2000). […]

## COc1cc(/C=C/C(=O)CC(=O)/C=C/c2ccc(O)c(OC)c2)ccc1O [Curcumin, curcumin, reference compound]
AP-1; [3]
  suppressed binding activity of AP-1 (by cisplatin): did not change
NF-κB
  binding activity of NF-κB induced by cisplatin: suppressed
CP; liver, pretreatment before cisplatin
  CP mRNA expression level changed by cisplatin: did not show that effect
ICR mice [1]; [4]
  BUN (blood urea nitrogen): 138.6 ± 46.2 mg/dL
  Creatinine: 2.2 ± 1.4 mg/dL
  GOT: 381.6 ± 144.7 U/liter
  GPT: 158.4 ± 84.3 U/liter
ICR mice [2]; [4]
  K.W/B.W * 1000% (kidney weight/body weight): 17.2 ± 1.7
  S.W/B.W * 1000% (spleen weight/body weight): 2.0 ± 0.1
ICR mice [2]
  specific gravity of kidney: decreased specific gravity of kidney at the level similar to that of the control group
COX-2
  cisplatin-induced COX-2 mRNA expression: returned the cisplatin-induced COX-2 mRNA expression to initial level
iNOS
  induction of iNOS mRNA expression by cisplatin: not suppressed

## N.N.[Cl][Pt][Cl] [Cisplatin, cis-diamminedichloroplatinum [II], reference compound]
AP-1; mouse, in vivo
  DNA-binding activity of AP-1: decreased
NF-κB; mouse, in vivo
  DNA-binding activity of NF-κB: increased
CP; mouse, in vivo
  CP mRNA expression: downregulated
Kin
  Kin mRNA expression: upregulated
ICR mice [1]; [5]
  BUN (blood urea nitrogen): 144.4 ± 20.6 mg/dL
  Creatinine: 2.8 ± 0.7 mg/dL
  GOT: 517.1 ± 99.1 U/liter
  GPT: 185.8 ± 86.3 U/liter
S100A9; cisplatin alone
  S100A9 mRNA expression: upregulated
ICR mice [2]; [6]
  K.W/B.W * 1000% (kidney weight/body weight): 19.2 ± 1.6
  S.W/B.W * 1000% (spleen weight/body weight): 2.1 ± 0.4
COX-2; [7]
  COX-2 mRNA expression: highly induced
iNOS; [7]
  iNOS mRNA expression: highly induced
ClpX; cisplatin alone
  ClpX mRNA expression: downregulated

## CC(C)=CCC[C@@H](C)c1ccc(C)c(O)c1 [Xanthorrhizol, xanthorrhizol]
AP-1; [3]
  recovery of the binding activity of AP-1 suppressed by cisplatin: about 50%
NF-κB
  binding activity of NF-κB induced by cisplatin: suppressed
Streptococcus mutans
  antibacterial effect against oral bacteria such as Streptococcus mutans: antibacterial effect
ICR mice [1]; [8]
  BUN (blood urea nitrogen): 145.2 ± 23.5 mg/dL
  Creatinine: 2.0 ± 1.1 mg/dL
  GOT: 296.5 ± 74.5 U/liter
  GPT: 134.2 ± 58.5 U/liter
ICR mice [1]; [4]
  BUN (blood urea nitrogen): 50.9 ± 16.7 mg/dL
  Creatinine: 0.8 ± 0.5 mg/dL
  GOT: 201.4 ± 50.3 U/liter
  GPT: 106.0 ± 28.3 U/liter
ICR mice [1]; [9]
  BUN (blood urea nitrogen): significantly decreased
  Creatinine: significantly decreased
  GPT: significantly reduced
S100A9; pretreatment before cisplatin
  S100A9 mRNA expression level changed by cisplatin: reversed
ICR mice [2]; [8]
  K.W/B.W * 1000% (kidney weight/body weight): 17.5 ± 2.9
  S.W/B.W * 1000% (spleen weight/body weight): 2.1 ± 0.4
ICR mice [2]; [4]
  K.W/B.W * 1000% (kidney weight/body weight): 14.6 ± 0.9
  S.W/B.W * 1000% (spleen weight/body weight): 2.0 ± 0.3
ICR mice [2]
  specific gravity of kidney: decreased specific gravity of kidney at the level similar to that of the control group
COX-2
  cisplatin-induced COX-2 mRNA expression: returned the cisplatin-induced COX-2 mRNA expression to initial level
iNOS
  induction of iNOS mRNA expression by cisplatin: strongly suppressed
Rat uterine
  tonic contraction of rat uterine: dose-dependently limits tonic contraction
ClpX; pretreatment before cisplatin
  ClpX mRNA expression level changed by cisplatin: maintained the ClpX mRNA expression in the same level as without administrating with cisplatin; also recorded: reversed
